Experimental data: ChEMBL document CHEMBL5236661, “A new selective inhibitor for IMP-1 metallo-β-lactamase, 3Z,5E-octa-3,5-diene-1,3,4-tricarboxylic acid-3,4-anhydride” (Bioorg Med Chem, 2023)
≈ marks a conversion by molar mass, not a printed value. Calls of active or inactive are those of the source. The rule behind the calls is not given here.

Columns and labels:
[1] = Inhibition of bacterial Metallo-beta-lactamase IMP-1 using nitrocefin as substrate pre-incubated for 15 mins followed by substrate addition by microplate reader; set-up: species or system Bacteria
Pseudomonas aeruginosa [2] = assay: Antibacterial activity against Pseudomonas aeruginosa KB367 expressing IMP-1 assessed as inhibition of bacterial growth at 3 ug in presence of meropenem incubated overnight by paper disk method; type: functional; conditions: dose 3.0 µg
Escherichia coli [3] = assay: Antibacterial activity against Escherichia coli KB366 expressing IMP-1 assessed as inhibition of bacterial growth at 0.03 ug in absence of meropenem incubated overnight by paper disk method; type: functional, organism-based; conditions: dose 0.03 µg
Escherichia coli [4] = assay: Antibacterial activity against Escherichia coli KB366 expressing IMP-1 assessed as inhibition of bacterial growth at 30 ug in absence of meropenem incubated overnight by paper disk method; type: functional, organism-based; conditions: dose 30.0 µg
Pseudomonas aeruginosa [5] = assay: Antibacterial activity against Pseudomonas aeruginosa KB367 expressing IMP-1 assessed as inhibition of bacterial growth at 10 ug in presence of meropenem incubated overnight by paper disk method; type: functional; conditions: for zone of inhibition at 10 µg/disc: read-out: IZ
Escherichia coli [6] = assay: Antibacterial activity against Escherichia coli KB366 expressing IMP-1 assessed as inhibition of bacterial growth at 0.01 ug in absence of meropenem incubated overnight by paper disk method; type: functional, organism-based; conditions: dose 0.01 µg
Escherichia coli [7] = assay: Antibacterial activity against Escherichia coli KB366 expressing IMP-1 assessed as inhibition of bacterial growth at 1 ug in presence of meropenem incubated overnight by paper disk method; type: functional; conditions: read-out: IZ
Pseudomonas aeruginosa [8] = assay: Antibacterial activity against Pseudomonas aeruginosa KB367 expressing IMP-1 assessed as inhibition of bacterial growth at 30 ug in absence of meropenem incubated overnight by paper disk method; type: functional, organism-based; conditions: dose 30.0 µg
Escherichia coli [9] = assay: Antibacterial activity against Escherichia coli KB366 expressing IMP-1 assessed as inhibition of bacterial growth at 1 ug in absence of meropenem incubated overnight by paper disk method; type: functional, organism-based; conditions: dose 1.0 µg
Escherichia coli [10] = assay: Antibacterial activity against Escherichia coli KB366 expressing IMP-1 assessed as inhibition of bacterial growth at 0.3 ug in presence of meropenem incubated overnight by paper disk method; type: functional; conditions: read-out: IZ
Pseudomonas aeruginosa [11] = assay: Antibacterial activity against Pseudomonas aeruginosa KB367 expressing IMP-1 assessed as inhibition of bacterial growth at 10 ug in absence of meropenem incubated overnight by paper disk method; type: functional, organism-based; conditions: dose 10.0 µg
Pseudomonas aeruginosa [12] = assay: Antibacterial activity against Pseudomonas aeruginosa KB367 expressing IMP-1 assessed as inhibition of bacterial growth at 100 ug in absence of meropenem incubated overnight by paper disk method; type: functional, organism-based; conditions: dose 100.0 µg
Pseudomonas aeruginosa [13] = assay: Antibacterial activity against Pseudomonas aeruginosa KB367 expressing IMP-1 assessed as inhibition of bacterial growth at 30 ug in presence of meropenem incubated overnight by paper disk method; type: functional; conditions: read-out: IZ
Pseudomonas aeruginosa [14] = assay: Antibacterial activity against Pseudomonas aeruginosa KB367 expressing IMP-1 assessed as inhibition of bacterial growth at 0.3 ug in presence of meropenem incubated overnight by paper disk method; type: functional, organism-based; conditions: dose 0.3 µg
Pseudomonas aeruginosa [15] = assay: Antibacterial activity against Pseudomonas aeruginosa KB367 expressing IMP-1 assessed as inhibition of bacterial growth at 0.3 ug in absence of meropenem incubated overnight by paper disk method; type: functional, organism-based; conditions: dose 0.3 µg
Pseudomonas aeruginosa [16] = assay: Antibacterial activity against Pseudomonas aeruginosa KB367 expressing IMP-1 assessed as inhibition of bacterial growth at 1 ug in absence of meropenem incubated overnight by paper disk method; type: functional, organism-based; conditions: dose 1.0 µg
Escherichia coli [17] = assay: Antibacterial activity against Escherichia coli KB366 expressing IMP-1 assessed as inhibition of bacterial growth at 3 ug in presence of meropenem incubated overnight by paper disk method; type: functional; conditions: read-out: IZ
Escherichia coli [18] = assay: Antibacterial activity against Escherichia coli KB366 expressing IMP-1 assessed as inhibition of bacterial growth at 0.03 ug in presence of meropenem incubated overnight by paper disk method; type: functional; conditions: for inhibition zone (IZ): dose 0.03 µg
Escherichia coli [19] = assay: Antibacterial activity against Escherichia coli KB366 expressing IMP-1 assessed as inhibition of bacterial growth at 10 ug in presence of meropenem incubated overnight by paper disk method; type: functional; conditions: read-out: IZ
Pseudomonas aeruginosa [20] = assay: Antibacterial activity against Pseudomonas aeruginosa KB367 expressing IMP-1 assessed as inhibition of bacterial growth at 1 ug in presence of meropenem incubated overnight by paper disk method; type: functional; conditions: dose 1.0 µg
Escherichia coli [21] = assay: Antibacterial activity against Escherichia coli KB366 expressing IMP-1 assessed as inhibition of bacterial growth at 0.3 ug in absence of meropenem incubated overnight by paper disk method; type: functional, organism-based; conditions: dose 0.3 µg
Pseudomonas aeruginosa [22] = assay: Antibacterial activity against Pseudomonas aeruginosa KB367 expressing IMP-1 assessed as inhibition of bacterial growth at 0.1 ug in absence of meropenem incubated overnight by paper disk method; type: functional, organism-based; conditions: dose 0.1 µg
Escherichia coli [23] = assay: Antibacterial activity against Escherichia coli KB366 expressing IMP-1 assessed as inhibition of bacterial growth at 0.1 ug in absence of meropenem incubated overnight by paper disk method; type: functional, organism-based; conditions: dose 0.1 µg
Pseudomonas aeruginosa [24] = assay: Antibacterial activity against Pseudomonas aeruginosa KB367 expressing IMP-1 assessed as inhibition of bacterial growth at 3 ug in absence of meropenem incubated overnight by paper disk method; type: functional, organism-based; conditions: dose 3.0 µg
Escherichia coli [25] = assay: Antibacterial activity against Escherichia coli KB366 expressing IMP-1 assessed as inhibition of bacterial growth at 3 ug in absence of meropenem incubated overnight by paper disk method; type: functional, organism-based; conditions: dose 3.0 µg
Escherichia coli [26] = assay: Antibacterial activity against Escherichia coli KB366 expressing IMP-1 assessed as inhibition of bacterial growth at 10 ug in absence of meropenem incubated overnight by paper disk method; type: functional, organism-based; conditions: dose 10.0 µg
Escherichia coli [27] = assay: Antibacterial activity against Escherichia coli KB366 expressing IMP-1 assessed as inhibition of bacterial growth at 0.01 ug in presence of meropenem incubated overnight by paper disk method; type: functional; conditions: for inhibition zone (IZ): dose 0.01 µg
Pseudomonas aeruginosa [28] = assay: Antibacterial activity against Pseudomonas aeruginosa KB367 expressing IMP-1 assessed as inhibition of bacterial growth at 0.1 ug in presence of meropenem incubated overnight by paper disk method; type: functional, organism-based; conditions: dose 0.1 µg
Escherichia coli [29] = assay: Antibacterial activity against Escherichia coli KB366 expressing IMP-1 assessed as inhibition of bacterial growth at 0.1 ug in presence of meropenem incubated overnight by paper disk method; type: functional; conditions: for inhibition zone (IZ): dose 0.1 µg
Escherichia coli [30] = assay: Antibacterial activity against Escherichia coli KB366 expressing IMP-1 assessed as inhibition of bacterial growth at 100 ug in presence of meropenem incubated overnight by paper disk method; type: functional; conditions: read-out: IZ
Pseudomonas aeruginosa [31] = assay: Antibacterial activity against Pseudomonas aeruginosa KB367 expressing IMP-1 assessed as inhibition of bacterial growth at 100 ug in presence of meropenem incubated overnight by paper disk method; type: functional; conditions: read-out: IZ
Escherichia coli [32] = assay: Antibacterial activity against Escherichia coli KB366 expressing IMP-1 assessed as inhibition of bacterial growth at 30 ug in presence of meropenem incubated overnight by paper disk method; type: functional; conditions: read-out: IZ
Escherichia coli [33] = assay: Antibacterial activity against Escherichia coli KB366 expressing IMP-1 assessed as inhibition of bacterial growth at 100 ug in absence of meropenem incubated overnight by paper disk method; type: functional, organism-based; conditions: dose 100.0 µg

IC50 [1] [mg/L] | Structure (SMILES) | inhibition zone (IZ) (Pseudomonas aeruginosa [2]) | inhibition zone (IZ) (Escherichia coli [3]) | inhibition zone (IZ) (Escherichia coli [4]) | inhibition zone (IZ) (Escherichia coli [6]) | zone of inhibition at 1 µg/disc (Escherichia coli [7]) [mm] | inhibition zone (IZ) (Pseudomonas aeruginosa [8]) | inhibition zone (IZ) (Escherichia coli [9]) | zone of inhibition at 0.3 µg/disc (Escherichia coli [10]) [mm] | inhibition zone (IZ) (Pseudomonas aeruginosa [11]) | inhibition zone (IZ) (Pseudomonas aeruginosa [12]) | zone of inhibition at 30 µg/disc (Pseudomonas aeruginosa [13]) [mm] | inhibition zone (IZ) (Pseudomonas aeruginosa [14]) | inhibition zone (IZ) (Pseudomonas aeruginosa [15]) | inhibition zone (IZ) (Pseudomonas aeruginosa [16]) | zone of inhibition at 3 µg/disc (Escherichia coli [17]) [mm] | zone of inhibition at 10 µg/disc (Escherichia coli [19]) [mm] | inhibition zone (IZ) (Pseudomonas aeruginosa [20]) | inhibition zone (IZ) (Escherichia coli [21]) | inhibition zone (IZ) (Pseudomonas aeruginosa [22]) | other results
67.3 (≈ 300 µM) | CC/C=C/C1=C(CCC(=O)O)C(=O)OC1=O |  |  |  |  |  |  |  |  |  |  |  |  |  |  |  |  |  |  |  | 
> 10 | CC/C=C/C1=C(CCCOS(C)(=O)=O)C(=O)OC1=O |  |  |  |  |  |  |  |  |  |  |  |  |  |  |  |  |  |  |  | 
3 (≈ 15.4 µM) | CC/C=C/C1=C(CCC)C(=O)OC1=O | inactive | inactive | inactive | inactive | 17 | inactive | inactive | 15 | inactive | inactive | 10 | inactive | inactive | inactive | 18 | 24 | inactive | inactive | inactive | inhibition zone (IZ) (Pseudomonas aeruginosa [5]; dose 10.0 µg): inactive; zone of inhibition at 0.03 µg/disc (Escherichia coli [18]; read-out: IZ): 9 mm; inhibition zone (IZ) (Escherichia coli [23]): inactive; inhibition zone (IZ) (Pseudomonas aeruginosa [24]): inactive; inhibition zone (IZ) (Escherichia coli [25]): inactive; inhibition zone (IZ) (Escherichia coli [26]): inactive; zone of inhibition at 0.01 µg/disc (Escherichia coli [27]; read-out: IZ): 9 mm; inhibition zone (IZ) (Pseudomonas aeruginosa [28]): inactive; zone of inhibition at 0.1 µg/disc (Escherichia coli [29]; read-out: IZ): 13 mm
3.74 (≈ 14.4 µM) | CC/C=C/C1=C(c2ccc(O)c(O)c2)C(=O)OC1=O | inactive | inactive | inactive | inactive | 16 | inactive | inactive | 11 | inactive | inactive | 14 | inactive | inactive | inactive | 18 | 23 | inactive | inactive | inactive | zone of inhibition at 100 µg/disc (Escherichia coli [30]): 31 mm; zone of inhibition at 10 µg/disc (Pseudomonas aeruginosa [5]): 9 mm; zone of inhibition at 100 µg/disc (Pseudomonas aeruginosa [31]): 18 mm; inhibition zone (IZ) (Escherichia coli [18]): inactive; inhibition zone (IZ) (Escherichia coli [23]): inactive; zone of inhibition at 30 µg/disc (Escherichia coli [32]): 27 mm; inhibition zone (IZ) (Pseudomonas aeruginosa [24]): inactive; inhibition zone (IZ) (Escherichia coli [33]): inactive; inhibition zone (IZ) (Escherichia coli [25]): inactive; inhibition zone (IZ) (Escherichia coli [26]): inactive; inhibition zone (IZ) (Escherichia coli [27]): inactive; inhibition zone (IZ) (Pseudomonas aeruginosa [28]): inactive; inhibition zone (IZ) (Escherichia coli [29]): inactive
1.46 (≈ 5.57 µM) | CCCCC1=C(c2ccc(O)c(O)c2)C(=O)OC1=O | inactive | inactive | inactive | inactive | 17 | inactive | inactive | 13 | inactive | inactive | 14 | inactive | inactive | inactive | 20 | 22 | inactive | inactive | inactive | zone of inhibition at 100 µg/disc (Escherichia coli [30]): 29 mm; zone of inhibition at 10 µg/disc (Pseudomonas aeruginosa [5]): 9 mm; zone of inhibition at 100 µg/disc (Pseudomonas aeruginosa [31]): 19 mm; inhibition zone (IZ) (Escherichia coli [18]): inactive; inhibition zone (IZ) (Escherichia coli [23]): inactive; zone of inhibition at 30 µg/disc (Escherichia coli [32]): 25 mm; inhibition zone (IZ) (Pseudomonas aeruginosa [24]): inactive; inhibition zone (IZ) (Escherichia coli [33]): inactive; inhibition zone (IZ) (Escherichia coli [25]): inactive; inhibition zone (IZ) (Escherichia coli [26]): inactive; inhibition zone (IZ) (Escherichia coli [27]): inactive; inhibition zone (IZ) (Pseudomonas aeruginosa [28]): inactive; inhibition zone (IZ) (Escherichia coli [29]): inactive
